The compounds below were run against T1, human NK-2 receptor (Homo sapiens, UniProt P21452) (assay: Binding test on membranes of CHO cells transfected with the human ileum NK-2 receptor, radioligand NKA in competition). Conditions: CHO cell membranes; radioligand NKA 100 pM; incubation 30 min., 20° C.
T1 construct: expressed in transfected cells; host or cells: Chinese hamster ovary (CHO) cells, membranes
T1 sequence (P21452 1-398): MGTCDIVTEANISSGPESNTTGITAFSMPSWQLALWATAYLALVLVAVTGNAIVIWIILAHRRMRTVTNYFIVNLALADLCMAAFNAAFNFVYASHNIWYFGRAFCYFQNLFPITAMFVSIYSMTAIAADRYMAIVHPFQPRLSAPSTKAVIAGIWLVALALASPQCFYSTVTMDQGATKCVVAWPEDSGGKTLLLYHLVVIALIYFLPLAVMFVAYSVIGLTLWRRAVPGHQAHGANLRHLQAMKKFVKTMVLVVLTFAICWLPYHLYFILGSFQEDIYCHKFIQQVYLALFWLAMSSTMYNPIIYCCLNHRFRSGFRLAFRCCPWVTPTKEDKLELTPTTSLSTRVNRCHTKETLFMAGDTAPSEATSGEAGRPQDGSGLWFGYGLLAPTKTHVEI
Description: Assessment of the antagonist activity on NK-2 receptors was performed with binding and functional tests according to prior descriptions in the literature for NK-2 antagonists.
In particular, affinity of the compounds for the human NK-2 receptor was assessed in a binding test using membranes of Chinese hamster ovary (CHO) cells, transfected with the NK-2 receptor of human ileum and the radioligand ['251]NKA (Amersham, aspecific activity 2000 Ci/mmol) at a concentration of 100 pM in competition studies. The substances under examination were tested in a concentration range from 0.01 nM to 10 mM. At the end of incubation (30 min., 20° C.) the samples were filtered and the radioactivity was determined using a gamma-counter.
The data in table 1 were obtained for some compounds of general formula (I) and concern the values of affinity to the human NK-2 receptor: […]

Row | Compound | pKi (affinity to the human NK-2 receptor)
1 | (S) 6-Methyl-benzo[b]thiophene-2-carboxylic acid (1-{1-benzyl-4-[4-(2-hydroxy-ethyl)-piperidin-1-yl]-4-oxo-butylcarbamoyl)-cyclopentyl)-amide [Example 53] | 8.7

Same assay, conditions: CHO cell membranes; radioligand NKA 100 pM; incubation 30 min., 20° C.; read-out: pKi (affinity to the human NK-2 receptor) (converted)

Row | Compound | Ki [nM]
2 | CN(C)CCCNC(=O)C=C[C@@H](Cc1ccccc1)NC(=O)C1(NC(=O)c2cc3ccccc3s2)CCCC1 [Example 46, (R) Benzo[b]thiophene-2-carboxylic acid {1-[1-benzyl-3-(3-dimethylamino-propylcarbamoyl)-allylcarbamoyl]-cyclopentyl)-amide] | 0.631
3 | O=C(NC1(C(=O)N[C@@H](CCCN2CCC(Cc3ccccc3)CC2)Cc2ccccc2)CCCC1)c1cc2ccccc2s1 [Example 50, (S) Benzo[b]thiophene-2-carboxylic acid {1-[1-benzyl-4-(4-benzyl-piperidin-1-yl)-butylcarbamoyl]-cyclopentyl}-amide] | 0.126
4 | Cc1ccc2cc(C(=O)NC3(C(=O)N[C@@H](CCC(=O)N4CCN(C5CCOCC5)CC4)Cc4ccccc4)CCCC3)sc2c1 [Example 52, (S) 6-Methyl-benzo[b]thiophene-2-carboxylic acid (1-{1-benzyl-4-oxo-4-[4-(tetrahydro-pyran-4-yl)-piperazin-1-yl]-butylcarbamoyl}-cyclopentyl)amide] | 0.0794
5 | Cc1ccc2cc(C(=O)NC3(C(=O)N[C@@H](CCCC4CCN(CC5CCOCC5)CC4)Cc4ccccc4)CCCC3)sc2c1 [Example 58, (S) 6-Methyl-benzo[b]thiophene-2-carboxylic acid (1-{1-benzyl-4-[1-(tetrahydro-pyran-4-ylmethyl)-piperidin-4-yl]-butylcarbamoyl}-cyclopentyl)-amide] | 0.126
6 | Cc1ccc2cc(C(=O)NC3(C(=O)N[C@@H](COCCC4CCN(CC5CCOCC5)CC4)Cc4ccccc4)CCCC3)sc2c1 [Example 62] | 0.501

The next lines start with the values.

Row | Ki [nM] | Compound
7 | 0.0794 | Cc1ccc2cc(C(=O)NC3(C(=O)N[C@@H](CCC(=O)N4CCN(CC5CCOCC5)CC4)Cc4ccccc4)CCCC3)sc2c1 [Example 51]
8 | 0.0501 | Cc1ccc2cc(C(=O)NC3(C(=O)N[C@@H](CCCN4CCN(CC5CCOCC5)CC4)Cc4ccccc4)CCCC3)sc2c1 [Example 54, (S) 6-Methyl-benzo[b]thiophene-2-carboxylic acid (1-{1-benzyl-4-[4-(tetrahydro-pyran-4-ylmethyl)-piperazin-1-yl]-butylcarbamoyl}-cyclopentyl)-amide]
9 | 0.1 | Cc1ccc2cc(C(=O)NC3(C(=O)N[C@@H](CCCN4CCN(C(=O)C5CCOCC5)CC4)Cc4ccccc4)CCCC3)sc2c1 [Example 55, (S) 6-Methyl-benzo[b]thiophene-2-carboxylic acid (1-{1-benzyl-4-[4-(tetrahydro-pyran-4-carbonyl)-piperazin-1-yl]-butylcarbamoyl}-cyclopentyl)-amide]

Reference: patent US20060223814A1, “Nk-2 antagonist basic linear compounds and formulations containing them” (priority 2003, published 2006)
